Test results: ChEMBL document CHEMBL1201862, “PubChem BioAssay data set” (2004)
Activity calls are given as the source filed them.

What was measured:
HEK293 [1] = experiment: cells; settings: Homo sapiens
HEK293 [2] = experiment: cells; settings: Homo sapiens; remark: listed apart in the source
CAAX prenyl protease 2 [3] = target: T1, CAAX prenyl protease 2 (Saccharomyces cerevisiae S288c, UniProt Q03530); format: biochemical
T1 sequence (Q03530 whole entry): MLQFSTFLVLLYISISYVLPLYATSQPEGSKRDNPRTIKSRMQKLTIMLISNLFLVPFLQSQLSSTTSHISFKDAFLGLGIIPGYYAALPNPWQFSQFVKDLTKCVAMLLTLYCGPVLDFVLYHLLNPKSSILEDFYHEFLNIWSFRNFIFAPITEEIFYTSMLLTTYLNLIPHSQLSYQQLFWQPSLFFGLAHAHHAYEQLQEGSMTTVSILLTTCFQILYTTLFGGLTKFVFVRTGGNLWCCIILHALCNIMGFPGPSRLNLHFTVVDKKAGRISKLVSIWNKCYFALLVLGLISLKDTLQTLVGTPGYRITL

CAAX prenyl protease 2 [4] = target: CAAX prenyl protease 2 (Homo sapiens, UniProt Q9Y256); experiment: human Rce1 protease inhibitors, dose response, biochemical, yeast membranes, quenched-peptide fluorescence, cherry-pick (AID 588849)
Sequence of CAAX prenyl protease 2 (Homo sapiens, UniProt Q9Y256) (Q9Y256 whole entry): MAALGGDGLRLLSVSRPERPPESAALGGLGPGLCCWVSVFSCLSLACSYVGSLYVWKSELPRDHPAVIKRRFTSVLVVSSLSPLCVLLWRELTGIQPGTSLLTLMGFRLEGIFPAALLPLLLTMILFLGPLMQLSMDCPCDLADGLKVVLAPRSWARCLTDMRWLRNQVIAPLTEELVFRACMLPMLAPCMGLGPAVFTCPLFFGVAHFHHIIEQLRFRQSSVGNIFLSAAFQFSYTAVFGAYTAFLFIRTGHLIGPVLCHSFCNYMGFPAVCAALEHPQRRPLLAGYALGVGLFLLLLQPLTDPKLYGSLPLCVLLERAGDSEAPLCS

CHO-K1 = experiment: (§1) Counterscreen for antagonists of the orexin 1 receptor (OX1R; HCRTR1): Homogeneous time resolved fluorescence (HTRF)-based cell-based dose response assay to identify antagonists of the parental CHO-K1 cell line. [Related pubchem assays (depositor defined):AID434989, AID435008, AID463079, AID485270, AID492963, AID492964, AID492965, AID493232, AID504699, AID504701]; format: functional; settings: Cricetulus griseus
[5] = as §1, with “Fluorescence-based” for “Homogeneous time resolved fluorescence (HTRF)-based”, “cell-based high throughput” for “cell-based”, “CHO” for “CHO-K1”; format: functional
[6] = target: T2, Orexin/Hypocretin receptor type 1 (Homo sapiens, UniProt O43613); experiment: Homogeneous Time Resolved Fluorescence (HTRF)-based cell-based high throughput dose response assay for antagonists of the orexin 1 receptor (OX1R; HCRTR1). [Related pubchem assays (depositor defined):AID434989, AID435008, AID463079, AID485270, AID492963, AID492964, AID492965, AID493232, AID504717, AID504718]; format: functional
T2 sequence (O43613 whole entry): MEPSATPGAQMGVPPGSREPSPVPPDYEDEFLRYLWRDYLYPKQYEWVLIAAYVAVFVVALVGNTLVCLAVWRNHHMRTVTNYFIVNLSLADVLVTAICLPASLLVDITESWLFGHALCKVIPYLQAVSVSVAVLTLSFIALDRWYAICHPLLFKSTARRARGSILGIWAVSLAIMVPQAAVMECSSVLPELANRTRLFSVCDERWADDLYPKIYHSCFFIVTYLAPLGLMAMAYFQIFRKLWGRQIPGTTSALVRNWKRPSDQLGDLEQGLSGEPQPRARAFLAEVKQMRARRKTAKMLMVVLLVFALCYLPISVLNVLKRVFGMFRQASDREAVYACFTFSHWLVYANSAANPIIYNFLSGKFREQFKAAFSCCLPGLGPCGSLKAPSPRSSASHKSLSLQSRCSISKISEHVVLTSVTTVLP

[7] = target: T2, Orexin/Hypocretin receptor type 1; experiment: Fluorescence-based cell-based high throughput dose response assay for antagonists of the orexin 1 receptor (OX1R; HCRTR1). [Related pubchem assays (depositor defined):AID434989, AID435008, AID463079, AID485270, AID492963, AID492964, AID492965, AID493232, AID504717, AID504718]; format: functional
[8] = Counterscreen for AddAB inhibitors: absorbance-based bacterial cell-based high throughput dose response assay for inhibitors of bacterial viability. [Related pubchem assays (depositor defined):AID435030, AID449728, AID449731, AID488942, AID488955, AID488956]; format: functional
[9] = Luminescence Cell-Based Dose Retest to Confirm Inhibitors of Cancer Stem Cells. [Related pubchem assays (depositor defined):AID2717, AID2721]; format: functional; settings: Homo sapiens
INS1 = experiment: beta cell apoptosis inhibitors, cytokine rescue, dose response, luminescence, retest (AID 449756); format: functional, cell-based; settings: Rattus norvegicus;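 further: cell death triggered by IL-1 beta plus TNF-alpha plus IFN-gamma mixture; protective hits raise ATP signal compared with cytokine alone wells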
Nonstructural protein 1 = Nonstructural protein 1 (Influenza A virus, UniProt Q194T2); format: functional, Influenza A virus (A/California/07/2009(H1N1))
Sequence of Nonstructural protein 1 (Q194T2 whole entry): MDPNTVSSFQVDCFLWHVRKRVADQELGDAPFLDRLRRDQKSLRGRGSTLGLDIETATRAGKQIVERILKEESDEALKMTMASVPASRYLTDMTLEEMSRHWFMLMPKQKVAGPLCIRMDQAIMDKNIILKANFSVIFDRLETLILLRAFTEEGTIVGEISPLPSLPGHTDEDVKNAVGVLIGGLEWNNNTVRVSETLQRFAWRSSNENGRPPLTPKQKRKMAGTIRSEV

BJ = experiment: cytotoxicity toward Ras-transformed BJeLR fibroblasts, dose response, cell-based, alamar blue fluorescence, cherrypicked samples (AID 2631); format: functional; settings: Homo sapiens;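 further: confirmatory dose-response assay in RAS-dependent BJ fibroblasts engineered with TERT, LT and ST, with cytotoxicity read by fluorescence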
Exodeoxyribonuclease V = Exodeoxyribonuclease V (Escherichia coli (strain K12), UniProt P04993+P07648+P08394); experiment: E. coli RecBCD inhibitors, dose response, counter-screen for AddAB inhibitor project, absorbance, V66 E. coli, mutant T4 phage (AID 492957); format: functional, cell-based, Escherichia coli str. K-12 substr. MG1655
Sequence of Exodeoxyribonuclease V (P04993 whole entry): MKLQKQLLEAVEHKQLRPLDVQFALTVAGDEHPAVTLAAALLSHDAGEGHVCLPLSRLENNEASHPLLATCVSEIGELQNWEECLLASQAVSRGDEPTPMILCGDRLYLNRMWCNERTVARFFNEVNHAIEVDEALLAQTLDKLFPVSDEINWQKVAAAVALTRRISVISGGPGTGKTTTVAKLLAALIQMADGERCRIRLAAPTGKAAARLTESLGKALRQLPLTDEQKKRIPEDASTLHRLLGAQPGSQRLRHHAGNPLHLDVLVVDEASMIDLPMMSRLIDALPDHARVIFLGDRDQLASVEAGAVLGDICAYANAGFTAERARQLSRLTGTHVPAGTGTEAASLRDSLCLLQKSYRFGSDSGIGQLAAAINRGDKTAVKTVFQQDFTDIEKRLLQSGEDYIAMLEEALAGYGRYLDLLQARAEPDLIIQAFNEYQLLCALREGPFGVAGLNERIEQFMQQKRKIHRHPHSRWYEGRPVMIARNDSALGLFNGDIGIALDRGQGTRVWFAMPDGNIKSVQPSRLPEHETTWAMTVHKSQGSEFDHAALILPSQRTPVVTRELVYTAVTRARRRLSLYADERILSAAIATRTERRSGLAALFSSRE
Sequence of Exodeoxyribonuclease V (P07648 whole entry): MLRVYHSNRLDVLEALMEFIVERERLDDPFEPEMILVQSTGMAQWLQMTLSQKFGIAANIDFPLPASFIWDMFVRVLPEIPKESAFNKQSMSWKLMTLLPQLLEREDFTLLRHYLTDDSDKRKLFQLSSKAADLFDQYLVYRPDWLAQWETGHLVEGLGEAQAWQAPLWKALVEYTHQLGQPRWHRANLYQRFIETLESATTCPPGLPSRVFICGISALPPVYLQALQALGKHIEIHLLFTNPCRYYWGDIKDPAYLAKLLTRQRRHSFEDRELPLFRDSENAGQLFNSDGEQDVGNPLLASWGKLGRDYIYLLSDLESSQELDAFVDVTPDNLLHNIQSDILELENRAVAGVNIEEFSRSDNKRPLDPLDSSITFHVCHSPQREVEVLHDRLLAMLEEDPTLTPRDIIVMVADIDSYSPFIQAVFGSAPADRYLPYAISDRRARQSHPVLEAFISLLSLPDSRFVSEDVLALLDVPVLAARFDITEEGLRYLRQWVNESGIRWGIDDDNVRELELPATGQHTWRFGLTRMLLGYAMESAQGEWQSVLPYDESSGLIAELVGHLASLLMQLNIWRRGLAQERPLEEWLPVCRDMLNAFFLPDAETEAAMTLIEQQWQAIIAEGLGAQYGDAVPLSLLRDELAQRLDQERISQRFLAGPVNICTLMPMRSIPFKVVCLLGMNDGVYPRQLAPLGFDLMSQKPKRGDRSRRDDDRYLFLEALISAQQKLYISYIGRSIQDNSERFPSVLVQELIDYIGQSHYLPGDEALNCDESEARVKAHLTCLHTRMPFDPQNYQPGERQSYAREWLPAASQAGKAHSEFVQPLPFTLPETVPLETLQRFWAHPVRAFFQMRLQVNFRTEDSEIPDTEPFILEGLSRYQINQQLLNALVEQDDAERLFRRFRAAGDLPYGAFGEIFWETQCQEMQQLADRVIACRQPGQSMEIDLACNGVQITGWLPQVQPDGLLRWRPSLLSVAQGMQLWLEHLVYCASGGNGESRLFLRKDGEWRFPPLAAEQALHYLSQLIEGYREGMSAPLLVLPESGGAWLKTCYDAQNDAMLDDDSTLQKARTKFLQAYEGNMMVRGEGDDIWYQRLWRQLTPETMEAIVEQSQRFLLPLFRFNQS
Sequence of Exodeoxyribonuclease V (P08394 whole entry): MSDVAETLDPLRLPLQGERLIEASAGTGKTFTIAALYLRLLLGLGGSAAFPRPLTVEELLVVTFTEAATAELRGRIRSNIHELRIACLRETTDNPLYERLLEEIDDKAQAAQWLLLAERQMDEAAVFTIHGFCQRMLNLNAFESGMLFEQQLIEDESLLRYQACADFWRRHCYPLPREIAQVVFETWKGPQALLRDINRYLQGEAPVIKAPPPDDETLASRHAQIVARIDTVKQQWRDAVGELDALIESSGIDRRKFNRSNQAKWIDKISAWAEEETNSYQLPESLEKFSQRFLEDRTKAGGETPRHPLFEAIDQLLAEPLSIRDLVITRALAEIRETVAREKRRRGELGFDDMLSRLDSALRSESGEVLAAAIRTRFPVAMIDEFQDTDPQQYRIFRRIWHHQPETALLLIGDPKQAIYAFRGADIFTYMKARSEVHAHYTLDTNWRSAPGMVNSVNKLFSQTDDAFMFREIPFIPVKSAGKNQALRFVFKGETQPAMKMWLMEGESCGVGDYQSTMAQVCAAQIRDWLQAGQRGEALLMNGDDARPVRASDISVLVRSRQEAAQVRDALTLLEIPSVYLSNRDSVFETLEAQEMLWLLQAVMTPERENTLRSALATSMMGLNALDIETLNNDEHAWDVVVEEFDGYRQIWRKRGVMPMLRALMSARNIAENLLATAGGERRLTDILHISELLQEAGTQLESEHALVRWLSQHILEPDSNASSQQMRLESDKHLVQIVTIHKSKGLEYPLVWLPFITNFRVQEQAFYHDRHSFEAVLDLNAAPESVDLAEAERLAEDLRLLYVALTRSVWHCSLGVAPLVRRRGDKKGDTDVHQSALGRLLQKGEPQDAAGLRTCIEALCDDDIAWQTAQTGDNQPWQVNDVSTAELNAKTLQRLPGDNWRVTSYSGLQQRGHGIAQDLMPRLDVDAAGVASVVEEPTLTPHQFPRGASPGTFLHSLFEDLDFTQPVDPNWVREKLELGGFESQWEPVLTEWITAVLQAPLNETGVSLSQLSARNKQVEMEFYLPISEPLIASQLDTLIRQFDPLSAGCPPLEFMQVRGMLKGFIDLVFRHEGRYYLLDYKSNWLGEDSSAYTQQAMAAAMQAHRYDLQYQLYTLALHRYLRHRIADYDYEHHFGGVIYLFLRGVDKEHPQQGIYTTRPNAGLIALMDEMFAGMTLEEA

## CCCCC(=O)NC(=S)Nc1cccc(Cl)c1N1CCCCC1
HEK293 [1]
  EC50: > 59.7 µM (inactive)
HEK293 [2]
  EC50: > 59.7 µM (inactive)

## CCOc1ccc2nc(O)c(CN(CCN3CCOCC3)Cc3nnnn3C(C)(C)CC)cc2c1
CAAX prenyl protease 2 [3]
  AC50: > 100 µM (inactive)
CAAX prenyl protease 2 [4]
  AC50: 7.54 µM (active)

## Cc1ccc(O)c(NC(=O)c2cc(-c3ccccc3Cl)on2)c1
CHO-K1
  IC50: > 66.3 µM (inactive)
[5]
  IC50: > 49.8 µM (inactive)
[6]
  IC50: 7.23 µM (active)
[7]
  IC50: > 49.8 µM (inactive)

## COc1cccc(/C=N/Nc2ncnc(Cl)c2N)c1O
[8]
  IC50: > 119 µM (inactive)
[9]
  AC50: 2.96 µM (active)
INS1
  AC50: 1.02 µM (active)
Nonstructural protein 1
  IC50: 3.65 µM (active)
BJ
  EC50: 1.27 µM (inconclusive)
Exodeoxyribonuclease V
  IC50: > 119 µM (inactive)
